Laboratory results: patent publication US20220315574A1, “Beta-Arrestin-Modulating Compounds and Methods of Using Same” (Duke University, priority 2019, published 2022)
Counter-ions that a name gives are not always drawn.

Experiments:
βarr2 [1] = biological target: T1, βarr2 (Rattus norvegicus, UniProt P29067); assay: Dynamic light scattering (DLS) of βarr2; design: final βarr2 (truncated βarr2 at 394) concentration of ˜1 mg/mL; made in house; conditions: control βarr2 7.1 nm; Cmpd-30 60 μM
Method: DLS was performed on a Zetasizer Nano ZS instrument (Malvern Instruments, UK) at an excitation He—Ne laser source of 633 nm and a detector at a scattering angle of 173°. The measurements were obtained at 25° C. and defined time intervals. A low volume (100 μl) disposable sample cuvette was used (BRAND, Wertheim, Germany). The protein solutions used for all particle size measurements were at a final βarr2 (truncated βarr2 at 394) concentration of ˜1 mg/mL (20 μM) in a buffer consisting of […] (pH 7.4) and 150 mM NaCl in presence of Cmpd-30 (60 μM), IP6 (300 uM) or vehicle (DMSO). Size distributions of scattering particles of different βarr2 sample were obtained after data analysis performed on intensity and volume size distribution curves and the molecular mass and Z-average size calculated using Malvern DTS software.

βarr2 [2] = biological target: T1, βarr2; assay: Negative-stain electron microscopy, 2D class averages of βarr2; design: final βarr2 (truncated βarr2 at 394) concentration of ˜1 mg/mL; made in house
Method: To prepare for EM visualization of the architecture and structural organization of βarr2-Cmpd30 complexes, purified βarr2 (394) was diluted to 0.5 μM and incubated with 5 μM Cmpd-30 or vehicle (DMSO) in HN buffer (20 mM HEPES pH 7.4 and 150 mM NaCl) for 7 min at room temperature followed by dilution 10× into HN buffer containing 1 μM Cmpd-30, before negative staining. The positive control, βarr2 bound to IP6 sample was prepared similarly (5 μM and 250 μM, respectively) and was diluted 100× into HN buffer containing 10 μM IP6. Grids were prepared using conventional negative-staining protocols as described previously (Peisley, A. & Skiniotis, G. 2D Projection Analysis of GPCR Complexes by Negative Stain Electron Microscopy. Methods Mol Biol 1335, 29-38, doi:10.1007/978-1-4939-2914-6_3 (2015). Briefly, 3 μL of samples were applied onto a glow-discharged EM carbon-coated copper grid, adsorbed on the grid surface, blotted, stained, and air dried before imaging. EM grids were examined with a FEI Tecnai G2 Twin electron microscope and operated at an acceleration voltage of 120 kV. Images were recorded with an Eagle 2K CCD camera at a magnification of ×65,200 and a defocus value of ˜1.5 μm. Two-dimensional EM reference-free alignment and classification of particle projections were performed with the iterative stable alignment and clustering procedure (ISAC)(Yang, Z., et al., Iterative stable alignment and clustering of 2D transmission electron microscope images. Structure 20, 237-247, doi:10.1016/j.str.2011.12.007 (2012)). EM single particles were both automatically and manually selected using Boxer (part of the EMAN 2.1 software suite)(Tang, G. et EMAN2: an extensible image processing suite for electron microscopy. J Struct Biol 157, 38-46, doi:10.1016/j.jsb.2006.05.009 (2007)). A total of ˜250,000 0° particles projections were picked representing all the three βarr2 samples (with vehicle, Cmpd-30 or IP6) and windowed into 96×96-pixel images (with the RELION 2.1-beta-1 software package) and subjected to ISAC. […]

T1 sequence (P29067 1-394): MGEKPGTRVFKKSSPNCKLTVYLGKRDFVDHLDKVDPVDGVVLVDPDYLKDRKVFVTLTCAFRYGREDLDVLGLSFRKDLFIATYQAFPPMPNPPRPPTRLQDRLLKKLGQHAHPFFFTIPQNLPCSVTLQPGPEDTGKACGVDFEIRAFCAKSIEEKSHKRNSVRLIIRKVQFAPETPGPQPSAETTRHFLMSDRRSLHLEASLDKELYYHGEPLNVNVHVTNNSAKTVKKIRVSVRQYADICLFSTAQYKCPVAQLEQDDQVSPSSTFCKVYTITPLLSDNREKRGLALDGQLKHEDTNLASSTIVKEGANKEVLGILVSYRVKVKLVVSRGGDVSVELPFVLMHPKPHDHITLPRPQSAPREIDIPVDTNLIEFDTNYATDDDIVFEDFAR

particle (hydrodynamic) diameter of βarr2 (βarr2 [1]): 8.2 nm | particle average width of βarr2 class averages (βarr2 [2]; control βarr2 ~72 Å): 80-90 Å | class averages represented as homo-oligomers (dimers/trimers) (βarr2 [2]; control βarr 97% monomeric): 95%
SMILES: CN(C)c1n/c(=N/Cc2ccco2)ss1 [Cmpd-30, 5-(furan-2-ylmethylimino)-N,N-dimethyl-1,2,4-dithiazol-3-amine;hydrobromide]
